Measurements published in patent US20140088151A1, “ALHYDROXYMETHYL BIARYL BENZOTRIAZOLE DERIVATIVES” (priority 2011, published 2014).

Target: T1, recombinant human mGluR2 (Homo sapiens, UniProt Q14416)
T1 construct: expressed in transfected cells
Assay: FLIPR Ca2+ mobilization assay, potentiation of mGluR2
Assay type: cell-based
Conditions: CHO dhfr- cells expressing human mGluR2 and Gα16, EC20 glutamate (900 nM)
Protocol: Potencies are determined as follows. The compounds of the present invention may be tested in a fluorescence laser imaging plate reader (FLIPR) based assay. This assay is a common functional assay to monitor Ca^2+ mobilization in whole cells expressing recombinant receptor coupled with a promiscuous G-protein. CHO dhfr− cells stably expressing recombinant human mGluR2 and Gα16 loaded with Fluo-4 AM (Invitrogen, Carlsbad Calif.) are treated with varying concentrations of compounds and the Ca^2+ response is monitored on a FLIPR384 (Molecular Devices, Sunnydale Calif.) for agonist activity. The potentiation response is monitored after a subsequent addition of an EC20 concentration of glutamate (900 nM). The maximum calcium response at each concentration of compound for agonism or potentiation are plotted as dose responses curves fitted with a four parameters logistic equation giving EC50 and Hill coefficient using the iterative non linear curve fitting software program.

T1 sequence (Q14416 19-872): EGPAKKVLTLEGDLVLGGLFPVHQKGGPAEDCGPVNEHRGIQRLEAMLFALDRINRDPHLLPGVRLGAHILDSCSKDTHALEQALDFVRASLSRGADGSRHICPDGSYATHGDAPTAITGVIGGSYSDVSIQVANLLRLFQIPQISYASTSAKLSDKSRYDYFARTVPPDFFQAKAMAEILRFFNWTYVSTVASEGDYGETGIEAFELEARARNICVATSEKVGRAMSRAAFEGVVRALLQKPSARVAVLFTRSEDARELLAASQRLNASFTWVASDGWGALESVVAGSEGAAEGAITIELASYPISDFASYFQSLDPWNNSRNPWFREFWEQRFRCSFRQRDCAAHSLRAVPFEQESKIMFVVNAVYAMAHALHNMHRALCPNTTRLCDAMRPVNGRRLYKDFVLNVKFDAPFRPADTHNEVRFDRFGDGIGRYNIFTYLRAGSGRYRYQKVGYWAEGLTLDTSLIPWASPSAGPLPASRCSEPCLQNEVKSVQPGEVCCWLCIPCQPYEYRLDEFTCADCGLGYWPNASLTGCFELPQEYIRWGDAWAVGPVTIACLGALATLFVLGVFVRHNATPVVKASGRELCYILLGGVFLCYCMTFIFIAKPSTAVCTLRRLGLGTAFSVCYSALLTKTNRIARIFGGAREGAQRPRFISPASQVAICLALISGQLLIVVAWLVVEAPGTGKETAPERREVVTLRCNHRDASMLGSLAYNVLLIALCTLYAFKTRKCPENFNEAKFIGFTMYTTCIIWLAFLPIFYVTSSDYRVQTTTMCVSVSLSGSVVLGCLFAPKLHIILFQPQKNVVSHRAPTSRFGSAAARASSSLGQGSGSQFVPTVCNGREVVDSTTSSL

Row | EC50 [nM] | SMILES
1 | 3.9 | OC1CCOc2cc(-c3ccc4c(nnn4CC4CC4)c3C(F)(F)F)ccc21 (centres unmarked) [Example 8, 7-[1-(cyclopropylmethyl)-4-(trifluoromethyl)-1H-benzotriazol-5-yl]-3,4-dihydro-2H-chromen-4-ol]
2 | 27 | OCc1ccc(-c2ccc3c(nnn3CC3CC3)c2C(F)(F)F)c(F)n1 [Example 1, {5-[1-(Cyclopropylmethyl)-4-(trifluoromethyl)-1H-benzotriazol-5-yl]-6-fluoropyridin-2-yl}methanol]
3 | 130 | OCC(O)c1ccc(-c2ccc3c(nnn3CC3CC3)c2C(F)(F)F)c(F)n1 (centres unmarked) [Example 4, 1-{5-[1-(cyclopropylmethyl)-4-(trifluoromethyl)-1H-benzotriazol-5-yl]-6-fluoropyridin-2-yl}ethane-1,2-diol]
4 | 8.3 | CC(O)c1ccc(-c2ccc3c(nnn3CC3CC3)c2C(F)(F)F)cc1 (centres unmarked) [Example 5, 1-{4-[1-(cyclopropylmethyl)-4-(trifluoromethyl)-1H-benzotriazol-5-yl]phenyl}ethanol]
5 | 2.1 | CC(C)(O)c1ccc(-c2ccc3c(nnn3CC3CC3)c2C(F)(F)F)cc1 [Example 7, 2-{4-[1-(cyclopropylmethyl)-4-(trifluoromethyl)-1H-benzotriazol-5-yl]phenyl}propan-2-ol]
6 | 31 | COC(C)c1ccc(-c2ccc3c(nnn3CC3CC3)c2C(F)(F)F)cc1 (centres unmarked) [Example 6, 1-(cyclopropylmethyl)-5-[4-(1-methoxyethyl)phenyl]-4-(trifluoromethyl)-1H-benzotriazole]
7 | 11 | OCc1ccc(-c2ccc3c(nnn3CC3CC3)c2C(F)(F)F)cc1 [Example 2, {4-[1-(cyclopropylmethyl)-4-(trifluoromethyl)-1H-benzotriazol-5-yl]phenyl}methanol]
8 | 15 | COC(=O)c1ccc(-c2ccc3c(nnn3CC3CC3)c2C(F)(F)F)c(F)c1 [Example 3, methyl 4-[1-(cyclopropylmethyl)-4-(trifluoromethyl)-1H-benzotriazol-5-yl]-3-fluorobenzoate]
